Patent US12637473B2, “MDM2 protein degraders” (THE REGENTS OF THE UNIVERSITY OF MICHIGAN, priority 2016, dated 2026)

What was measured:
MV4-11 cell line = assay: CellTiter-Glo Luminescent Cell Viability Assay, cell growth inhibition; format: cell-based; details: Homo sapiens, 96 h, 4 days
Description: (§1) Cell growth inhibitory activity of representative MDM2 protein degraders was determined using CellTiter-Glo® Luminescent Cell Viability Assay. Cells were seeded in 384-well white opaque cell culture plates at a density of 2,000 cells/well with serially diluted compounds and incubated at 37° C. in an atmosphere of 95% air and 5% CO2 for 4 days. Cell viability was determined using the CellTiter-Glo® Luminescent Cell Viability Assay Kit (Promega, Madison, WI) according to the manufacture's instruction. Briefly, a volume of CellTiter-Glo® Reagent equal to the volume of cell culture medium was added to each well, and then the plates were incubated at room temperature for 10-20 minutes. The luminescent signal was measured using a Tecan Infinite M1000 multimode microplate reader (Tecan, Morrisville, NC). The half maximal inhibitory concentration (IC50) was calculated using the GraphPad Prism 5 software (GraphPad Software, La Jolla, CA). Cpd. […] The structure of Cpd.

RS4; 11 cell line = assay: as above; format: cell-based; details: Homo sapiens, 96 h, 4 days
Description: as §1

Row | Structure (SMILES) | IC50 (MV4-11 cell line) | IC50 (RS4; 11 cell line)
1 | O=C(COc1cccc2c1C(=O)N(C1CCC(=O)NC1=O)C2=O)NCCCCNC(=O)c1ccc(NC(=O)[C@@H]2NC3(CCCCC3)[C@@]3(C(=O)Nc4cc(Cl)ccc43)[C@H]2c2cccc(Cl)c2F)cc1 (stereo partly drawn) [Cpd. No. 1, (3′R,4'S,5′R)-6″-chloro-4′-(3-chloro-2-fluorophenyl)-N-(4-((4-(2-((2-(2,6-dioxopiperidin-3-yl)-1,3-dioxoisoindolin-4-yl)oxy)acetamido)butyl)carbamoyl)phenyl)-2″-oxodispiro[cyclohexane-1,2′-pyrrolidine-3′,3″-indoline]-5′-carboxamide] | 416 nM | 233 nM
2 | O=C(COc1cccc2c1C(=O)N(C1CCC(=O)NC1=O)C2=O)NCCCOCCOCCOCCCNC(=O)c1ccc(NC(=O)[C@@H]2NC3(CCCCC3)[C@@]3(C(=O)Nc4cc(Cl)ccc43)[C@H]2c2cccc(Cl)c2F)cc1 (stereo partly drawn) [Cpd. No. 2, (3′R,4'S,5′R)-6″-chloro-4′-(3-chloro-2-fluorophenyl)-N-(4-((1-((2-(2,6-dioxopiperidin-3-yl)-1,3-dioxoisoindolin-4-yl)oxy)-2-oxo-7,10,13-trioxa-3-azahexadecan-16-yl)carbamoyl)phenyl)-2″-oxodispiro[cyclohexane-1,2′-pyrrolidine-3′,3″-indoline]-5′-carboxamide] | 157 nM | 85 nM
3 | O=C(CNc1cccc2c1C(=O)N(C1CCC(=O)NC1=O)C2=O)NCCCOCCOCCOCCCNC(=O)c1ccc(NC(=O)[C@@H]2NC3(CCCCC3)[C@@]3(C(=O)Nc4cc(Cl)ccc43)[C@H]2c2cccc(Cl)c2F)cc1 (stereo partly drawn) [Cpd. No. 3, (3′R,4'S,5′R)-6″-chloro-4′-(3-chloro-2-fluorophenyl)-N-(4-((1-((2-(2,6-dioxopiperidin-3-yl)-1,3-dioxoisoindolin-4-yl)amino)-2-oxo-7,10,13-trioxa-3-azahexadecan-16-yl)carbamoyl)phenyl)-2″-oxodispiro[cyclohexane-1,2′-pyrrolidine-3′,3″-indoline]-5′-carboxamide] | 5.6 nM | 22 nM
4 | O=C1CCC(N2C(=O)c3cccc(OCCOCCOCCOCCNC(=O)c4ccc(NC(=O)[C@@H]5NC6(CCCCC6)[C@@]6(C(=O)Nc7cc(Cl)ccc76)[C@H]5c5cccc(Cl)c5F)cc4)c3C2=O)C(=O)N1 (stereo partly drawn) [Cpd. No. 4, (3′R,4'S,5′R)-6″-chloro-4′-(3-chloro-2-fluorophenyl)-N-(4-((2-(2-(2-(2-((2-(2,6-dioxopiperidin-3-yl)-1,3-dioxoisoindolin-4-yl)oxy)ethoxy)ethoxy)ethoxy)ethyl)carbamoyl)phenyl)-2″-oxodispiro[cyclohexane-1,2′-pyrrolidine-3′,3″-indoline]-5′-carboxamide] | 6 nM | 14 nM
5 | O=C1CCC(N2C(=O)c3cccc(NCCCOCCOCCOCCCNC4CCN(C(=O)c5ccc(NC(=O)[C@@H]6NC7(CCCCC7)[C@@]7(C(=O)Nc8cc(Cl)ccc87)[C@H]6c6cccc(Cl)c6F)cc5)CC4)c3C2=O)C(=O)N1 (stereo partly drawn) [Cpd. No. 5, (3′R,4'S,5′R)-6″-chloro-4′-(3-chloro-2-fluorophenyl)-N-(4-(4-((3-(2-(2-(3-((2-(2,6-dioxopiperidin-3-yl)-1,3-dioxoisoindolin-4-yl)amino)propoxy)ethoxy)ethoxy)propyl)amino)piperidine-1-carbonyl)phenyl)-2″-oxodispiro[cyclohexane-1,2′-pyrrolidine-3′,3″-indoline]-5′-carboxamide] | 15 nM | 2.2 nM
6 | O=C1CCC(N2Cc3c(NCc4cn(CCCNC(=O)c5ccc(NC(=O)[C@@H]6NC7(CCCCC7)[C@@]7(C(=O)Nc8cc(Cl)ccc87)[C@H]6c6cccc(Cl)c6F)cc5)cn4)cccc3C2=O)C(=O)N1 (stereo partly drawn) [Cpd. No. 39, (3′R,4'S,5′R)-6″-chloro-4′-(3-chloro-2-fluorophenyl)-N-(4-((3-(4-(((2-(2,6-dioxopiperidin-3-yl)-1-oxoisoindolin-4-yl)amino)methyl)-1H-imidazol-1-yl)propyl)carbamoyl)phenyl)-2″-oxodispiro[cyclohexane-1,2′-pyrrolidine-3′,3″-indoline]-5′-carboxamide] | – | 1.5 nM
7 | CCN1[C@@H](C(=O)NC23CCC(C(=O)NCCOCCOCCNC(=O)COc4cccc5c4C(=O)N(C4CCC(=O)NC4=O)C5=O)(CC2)CC3)[C@H](c2cccc(Cl)c2F)[C@]2(C(=O)Nc3cc(Cl)ccc32)C12CCCCC2 (stereo partly drawn) [Cpd. No. 45, (3′R,4'S,5′R)-6″-chloro-4′-(3-chloro-2-fluorophenyl)-N-(4-((2-(2-(2-(2-((2-(2,6-dioxopiperidin-3-yl)-1,3-dioxoisoindolin-4-yl)oxy)acetamido)ethoxy)ethoxy)ethyl)carbamoyl)bicyclo[2.2.2]octan-1-yl)-1′-ethyl-2″-oxodispiro[cyclohexane-1,2′-pyrrolidine-3′,3″-indoline]-5′-carboxamide] | – | 35 nM
8 | CC1(C)CCC2(CC1)N[C@@H](C(=O)Nc1ccc(C(=O)NCCOCCOCCNc3cccc4c3C(=O)N(C3CCC(=O)NC3=O)C4=O)cc1)[C@H](c1cccc(Cl)c1F)[C@]21C(=O)Nc2cc(Cl)ccc21 (stereo partly drawn) [Cpd. No. 52, (3′R,4'S,5′R)-6″-chloro-4′-(3-chloro-2-fluorophenyl)-N-(4-((2-(2-(2-((2-(2,6-dioxopiperidin-3-yl)-1,3-dioxoisoindolin-4-yl)amino)ethoxy)ethoxy)ethyl)carbamoyl)phenyl)-4,4-dimethyl-2″-oxodispiro[cyclohexane-1,2′-pyrrolidine-3′,3″-indoline]-5′-carboxamide] | – | 1.5 nM
9 | CC1(C)CCC2(CC1)N[C@@H](C(=O)Nc1ccc(C(=O)NCCCOCCOCCOCCCNc3cccc4c3C(=O)N(C3CCC(=O)NC3=O)C4=O)cc1)[C@H](c1cccc(Cl)c1F)[C@]21C(=O)Nc2cc(Cl)ccc21 (stereo partly drawn) [Cpd. No. 53, (3′R,4'S,5′R)-6″-chloro-4′-(3-chloro-2-fluorophenyl)-N-(4-((3-(2-(2-(3-((2-(2,6-dioxopiperidin-3-yl)-1,3-dioxoisoindolin-4-yl)amino)propoxy)ethoxy)ethoxy)propyl)carbamoyl)phenyl)-4,4-dimethyl-2″-oxodispiro[cyclohexane-1,2′-pyrrolidine-3′,3″-indoline]-5′-carboxamide] | – | 5.2 nM
10 | COc1cc(C(=O)NCCOCCOCCNc2cccc3c2C(=O)N(C2CCC(=O)NC2=O)C3=O)ccc1NC(=O)[C@@H]1N[C@@H](CC(C)(C)C)[C@](C#N)(c2ccc(Cl)cc2F)[C@H]1c1cccc(Cl)c1F (stereo partly drawn) [Cpd. No. 57, (2R,3S,4R,5S)-3-(3-chloro-2-fluorophenyl)-4-(4-chloro-2-fluorophenyl)-4-cyano-N-(4-((2-(2-(2-((2-(2,6-dioxopiperidin-3-yl)-1,3-dioxoisoindolin-4-yl)amino)ethoxy)ethoxy)ethyl)carbamoyl)-2-methoxyphenyl)-5-neopentylpyrrolidine-2-carboxamide] | – | 13 nM
11 | COc1cc(C(=O)NCCCOCCOCCOCCCNc2cccc3c2C(=O)N(C2CCC(=O)NC2=O)C3=O)ccc1NC(=O)[C@@H]1N[C@@H](CC(C)(C)C)[C@](C#N)(c2ccc(Cl)cc2F)[C@H]1c1cccc(Cl)c1F (stereo partly drawn) [Cpd. No. 58, (2R,3S,4R,5S)-3-(3-chloro-2-fluorophenyl)-4-(4-chloro-2-fluorophenyl)-4-cyano-N-(4-((3-(2-(2-(3-((2-(2,6-dioxopiperidin-3-yl)-1,3-dioxoisoindolin-4-yl)amino)propoxy)ethoxy)ethoxy)propyl)carbamoyl)-2-methoxyphenyl)-5-neopentylpyrrolidine-2-carboxamide] | – | 14 nM
12 | CC(C)[C@@H](CS(=O)(=O)C(C)C)N1C(=O)[C@@](C)(CC(=O)NCCOCCOCCNc2cccc3c2C(=O)N(C2CCC(=O)NC2=O)C3=O)C[C@H](c2cccc(Cl)c2)[C@H]1c1ccc(Cl)cc1 (stereo partly drawn) [Cpd. No. 60, 2-((3R,5R,6S)-5-(3-chlorophenyl)-6-(4-chlorophenyl)-1-((S)-1-(isopropylsulfonyl)-3-methylbutan-2-yl)-3-methyl-2-oxopiperidin-3-yl)-N-(2-(2-(2-((2-(2,6-dioxopiperidin-3-yl)-1,3-dioxoisoindolin-4-yl)amino)ethoxy)ethoxy)ethyl)acetamide] | – | 404 nM
13 | CC(C)[C@@H](CS(=O)(=O)C(C)C)N1C(=O)[C@@](C)(CC(=O)NCCCOCCOCCOCCCNc2cccc3c2C(=O)N(C2CCC(=O)NC2=O)C3=O)C[C@H](c2cccc(Cl)c2)[C@H]1c1ccc(Cl)cc1 (stereo partly drawn) [Cpd. No. 61, 2-((3R,5R,6S)-5-(3-chlorophenyl)-6-(4-chlorophenyl)-1-((S)-1-(isopropylsulfonyl)-3-methylbutan-2-yl)-3-methyl-2-oxopiperidin-3-yl)-N-(3-(2-(2-(3-((2-(2,6-dioxopiperidin-3-yl)-1,3-dioxoisoindolin-4-yl)amino)propoxy)ethoxy)ethoxy)propyl)acetamide] | – | 98 nM
14 | Cc1ncsc1-c1ccc(CNC(=O)[C@@H]2C[C@@H](O)CN2C(=O)[C@@H](NC(=O)CCCCNC(=O)c2ccc(NC(=O)[C@@H]3NC4(CCCCC4)[C@@]4(C(=O)Nc5cc(Cl)ccc54)[C@H]3c3cccc(Cl)c3F)cc2)C(C)(C)C)cc1 [compound 41] | – | 991 nM
15 | Cc1ncsc1-c1ccc(CNC(=O)[C@@H]2C[C@@H](O)CN2C(=O)[C@@H](NC(=O)CCOCCOCCNC(=O)c2ccc(NC(=O)[C@@H]3NC4(CCCCC4)[C@@]4(C(=O)Nc5cc(Cl)ccc54)[C@H]3c3cccc(Cl)c3F)cc2)C(C)(C)C)cc1 [compound 42] | – | 677 nM
16 | Cc1ncsc1-c1ccc(CNC(=O)[C@@H]2C[C@@H](O)CN2C(=O)[C@@H](NC(=O)CCOCCOCCOCCNC(=O)c2ccc(NC(=O)[C@@H]3NC4(CCCCC4)[C@@]4(C(=O)Nc5cc(Cl)ccc54)[C@H]3c3cccc(Cl)c3F)cc2)C(C)(C)C)cc1 [compound 43] | – | 445 nM
